Results: US20220117972A1, “USE OF PPAR-DELTA AGONISTS IN THE TREATMENT OF MITOCHONDRIAL MYOPATHY” (Reneo Pharmaceuticals, Inc., priority 2019, published 2022)
pEC50: −log10 of the molar value. “Also recorded” adds a separate entry of the source. Where two headings read alike, the source gives them in different places.

Assays:
PPARδ [1] = target: T1, PPARδ (UniProt I0FFS1); assay: PPAR receptor transactivation assay, monkey PPARδ; format: cell-based
T1 construct: This is inferred from the cell pool name 'UAS-bla-Gal4' and from the general description in b82 and b85
T1 sequence (I0FFS1 1-441): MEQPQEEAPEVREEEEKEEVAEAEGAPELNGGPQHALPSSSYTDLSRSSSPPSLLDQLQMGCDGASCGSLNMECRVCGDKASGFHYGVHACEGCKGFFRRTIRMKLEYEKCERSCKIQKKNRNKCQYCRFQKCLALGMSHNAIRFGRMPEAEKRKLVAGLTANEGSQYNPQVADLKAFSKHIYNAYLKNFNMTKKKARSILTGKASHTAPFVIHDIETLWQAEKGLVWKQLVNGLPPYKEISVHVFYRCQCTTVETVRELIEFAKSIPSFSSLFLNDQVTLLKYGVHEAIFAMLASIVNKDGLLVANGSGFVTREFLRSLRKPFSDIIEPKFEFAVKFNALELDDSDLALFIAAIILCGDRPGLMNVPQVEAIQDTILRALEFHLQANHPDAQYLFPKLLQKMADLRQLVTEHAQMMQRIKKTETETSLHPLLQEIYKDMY

hPPARγ = target: T2, hPPARγ (Homo sapiens, UniProt P37231); assay: PPAR receptor transactivation assay, human PPARγ; format: cell-based
T2 construct: expressed in transfected cells; host or cells: Jump-In GripTite HEK293
T2 sequence (P37231 238-503 limits assumed): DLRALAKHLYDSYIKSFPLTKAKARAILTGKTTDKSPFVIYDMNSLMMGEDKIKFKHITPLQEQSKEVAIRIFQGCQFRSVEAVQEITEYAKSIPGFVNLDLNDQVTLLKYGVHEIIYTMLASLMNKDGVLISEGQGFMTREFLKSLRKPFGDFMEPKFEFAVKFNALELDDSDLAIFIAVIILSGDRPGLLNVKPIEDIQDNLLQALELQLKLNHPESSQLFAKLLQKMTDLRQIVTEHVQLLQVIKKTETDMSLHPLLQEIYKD
Protocol: (§1) Compound 1 was tested on all three human PPAR subtypes (hPPAR): hPPARα, hPPARγ, and hPPARδ. All assays were repeated at least three times for each subtype.
(§2) The genes of interest were synthesized and cloned into an appropriate Jump-In™ retargeting vector following the User Guide of the Jump-In™ T-REx™ HEK293 Retargeting Kit (ThermoFisher Catalog No A15008). For example, the vector will be used to transfect and retarget the Jump-In™ HEK293 GripTite™ parental cell line. Stable pools will be antibiotic-selected for about 21 days and tested for target gene expression by functional assay.
(§3) Jump-In™ GripTite™ HEK293 parental cells were plated at 60-80% confluency in a T-75 flask in growth medium without antibiotics and transfected with a 1:1 ratio of expression construct and R4 integrase expression construct (20 μg DNA total) using Lipofectamine® LTX (50 μL) and PLUS™ Reagent (20 μL). Following a 48 hours incubation, cells were selected with 600 μg/mL Geneticin® and 10 μg/mL Blasticidin for ˜21 days in growth medium.
(§4) Jump-In™ GripTite™ HEK293 rPPAR Alpha, Delta or Gamma UAS-bla-Gal4 cell pools were plated in a 384-well plate format (20,000 cells per well) in OptiMeM without FBS in replicates (n=4). Cells were allowed to adhere for 8 hours before addition of Compound 1 (1 mM top concentration, 3-fold dilutions, 10-point titration). After 16 hours, the cells were loaded with LiveBLAzer®, a fluorescent BLA substrate that gives a blue/green readout of expressing/non-expressing cells, respectively. The blue/green readout was measured on a fluorescent plate reader (Tecan Safire II).

[2] = system: primary mitochondrial myopathy patients; assay: clinical trial for primary mitochondrial myopathy (PMM); format: in vivo, human
hPPARδ = target: T3, hPPARδ (Homo sapiens, UniProt Q03181); assay: PPAR receptor transactivation assay, human PPARδ; format: cell-based
T3 construct: expressed in transfected cells; host or cells: Jump-In GripTite HEK293
T3 sequence (Q03181 211-439 limits assumed): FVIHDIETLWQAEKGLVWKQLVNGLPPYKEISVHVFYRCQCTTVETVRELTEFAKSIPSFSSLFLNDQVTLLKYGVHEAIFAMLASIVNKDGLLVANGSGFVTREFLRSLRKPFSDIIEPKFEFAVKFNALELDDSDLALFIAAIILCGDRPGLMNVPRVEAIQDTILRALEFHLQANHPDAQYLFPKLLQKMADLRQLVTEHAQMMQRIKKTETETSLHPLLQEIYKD
Protocol: as §1, §2, §3, §4

hPPARα = target: T4, hPPARα (Homo sapiens, UniProt Q07869); assay: PPAR receptor transactivation assay, human PPARα; format: cell-based
T4 construct: expressed in transfected cells; host or cells: Jump-In GripTite HEK293
T4 sequence (Q07869 239-466 limits assumed): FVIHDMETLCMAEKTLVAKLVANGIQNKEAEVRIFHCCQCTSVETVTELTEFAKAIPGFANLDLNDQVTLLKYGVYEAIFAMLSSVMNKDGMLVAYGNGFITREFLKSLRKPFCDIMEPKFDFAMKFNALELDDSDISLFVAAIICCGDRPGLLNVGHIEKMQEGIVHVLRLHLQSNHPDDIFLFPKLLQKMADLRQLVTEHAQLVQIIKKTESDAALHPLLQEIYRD
Protocol: as §1, §2, §3, §4

PPARδ [3] = target: T5, PPARδ (Mus musculus, UniProt P35396); assay: PPAR receptor transactivation assay, mouse PPARδ; format: cell-based
T5 construct: expressed in transfected cells; host or cells: Jump-In GripTite HEK293
T5 sequence (P35396 210-438 limits assumed): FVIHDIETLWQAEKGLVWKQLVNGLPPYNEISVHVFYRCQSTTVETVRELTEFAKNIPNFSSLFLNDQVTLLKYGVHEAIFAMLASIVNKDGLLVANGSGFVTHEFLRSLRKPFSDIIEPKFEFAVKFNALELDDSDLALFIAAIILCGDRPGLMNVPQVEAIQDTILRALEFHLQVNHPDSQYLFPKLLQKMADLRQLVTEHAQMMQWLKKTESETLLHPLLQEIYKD

[4] = PMM patients, 100 mg once daily for 12 weeks

EC50 (PPARδ [1]): 6.6 nM | EC50 (hPPARγ; Human PPARγ): > 10000 nM | activity on PPARγ in transactivation assays (hPPARγ; in some cases): negligible activity | agonist type at PPARγ (hPPARγ; in some cases): partial agonist | EC50 (hPPARδ; Human PPARδ): 31 nM | selectivity for PPARδ over PPARα and PPARγ (hPPARδ; in humans, monkey, and mouse): significantly greater selectivity | agonist type at PPARδ (hPPARδ; in some cases): full agonist | EC50 (hPPARα; Human PPARα, read-out: EC50 (nM) Mean): > 10000 nM | pEC50 (hPPARα; human PPARα, Example 12, read-out: EC50): < 5.00 | activity on PPARα in transactivation assays (hPPARα; in some cases): negligible activity | agonist type at PPARα (hPPARα; in some cases): partial agonist | EC50 (PPARδ [3]): 240 nM
Structure (SMILES): Cc1cc(OC/C=C(/c2ccc(F)cc2)c2ccc(C#CCN3CCOCC3)cc2)ccc1OCC(=O)O [Compound 1, (E)-[4-[3-(4-Fluorophenyl)-3-[4-[3-(morpholin-4-yl)propynyl]phenyl]allyloxy]-2-methyl-phenoxy]acetic acid]
Modified Fatigue Impact Scale scores [2, 4]: trends towards increases | brief pain index (BPI) score, mean [2, 4]: decreased | distance walked during a 12-minute walk test [2, 4]: increase the distance walked; also recorded: Improvements | peak VO2 [2, 4]: trends towards increases | tolerability ([2]; PMM subjects that participated in the study): well tolerated
